This is an account of results in US20120264949A1, “Method of Labeling Dopamine D2 Receptor Using Radiosynthesized Ligand of Iodine-123-Epidepride” (ATOMIC ENERGY COUNCIL-INSTITUTE OF NUCLEAR ENERGY RESEARCH, priority 2011, published 2012).

What is called Kd is the equilibrium constant for the complex coming apart.

The structures appear in SMILES notation.

Data set [1] is described as follows: Lipophilicity, octanol/PBS partition with gamma-counter. Format: physicochemical. The method, then:
For analyzing lipophilicity of the I-123-Epidepride, a solution of phosphate buffer saline (PBS) is used with lipophilic octanol. After 50 μl of I-123-Epidepride, 0.5 ml of PBS and 0.5 ml of octanol are mixed, a diluted octanol solution is obtained with an aqueous solution which has an equal weight as the octanol solution and then is processed with a gamma-counter. Therein, the lipophilicity of the I-123-Epidepride is expressed as a value of log P and log P is obtained by the following formula: Log P=Log {(Decay corrected activity)organic layer×10/(Decay corrected activity)aqueous layer}.
FIG. 6 and FIG. 7 are views showing lipophilicity and labeling results. […] Besides, the labeling method according to the present disclosure obtains 20 mCi each time for three times with an average radiochemistry purity of 99.55±0.8% and an average yield of 74.83±2.4% (shown in FIG. 7).

The nature of data set [2]: Stability after standing 24 hours, radiochemistry purity measured. The format is physicochemical. As to conditions: stayed still for 24 hours. The method, then: FIG. 8A and FIG. 8B are views showing stability at 0 hour and 24 hour. As shown in the figures, after the I-123-Epidepride is stayed still for 24 hours, its radiochemistry purity is measured. As shown by the liquid peaks, [32], the stability is higher than 90%.

Data set [3] deals with T1, dopamine D2 receptors (Mus musculus, UniProt P61168).
T1 construct: from tissue; host or cells: mouse brain in vivo (striatum, thalamus, midbrain)
The experiment in a line: microSPECT/microCT imaging of mouse brain. To be noted: 5 mCi injected, striatum, thalamus and midbrain. The format is in vivo. On the procedure: FIG. 9 is a view showing a combined image of a mouse brain obtained through microSPECT and microCT. As shown in the figure, a combined image of a mouse brain is obtained through microSPECT and microCT, where 5 mCi of I-123-Epidepride is injected into the mouse brain.

Data set [4] has as its target dopamine D2 receptors (Homo sapiens, UniProt P14416). As to conditions: imaging agent for dopamine D2 receptors; cited from earlier work.

T1 sequence (P61168 whole entry): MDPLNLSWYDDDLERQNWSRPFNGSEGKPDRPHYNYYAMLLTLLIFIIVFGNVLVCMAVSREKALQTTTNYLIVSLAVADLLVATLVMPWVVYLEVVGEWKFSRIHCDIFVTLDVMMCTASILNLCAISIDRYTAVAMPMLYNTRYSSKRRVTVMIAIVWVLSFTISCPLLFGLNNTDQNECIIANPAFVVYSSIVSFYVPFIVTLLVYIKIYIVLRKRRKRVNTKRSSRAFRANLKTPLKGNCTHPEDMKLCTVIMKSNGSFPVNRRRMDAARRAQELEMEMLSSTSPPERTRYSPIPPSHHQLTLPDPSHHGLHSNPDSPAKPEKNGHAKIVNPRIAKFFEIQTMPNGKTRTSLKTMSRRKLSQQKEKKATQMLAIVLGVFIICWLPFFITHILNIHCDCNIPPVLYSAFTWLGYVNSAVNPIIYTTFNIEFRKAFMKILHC
dopamine D2 receptors (Homo sapiens, UniProt P14416), sequence (P14416 whole entry): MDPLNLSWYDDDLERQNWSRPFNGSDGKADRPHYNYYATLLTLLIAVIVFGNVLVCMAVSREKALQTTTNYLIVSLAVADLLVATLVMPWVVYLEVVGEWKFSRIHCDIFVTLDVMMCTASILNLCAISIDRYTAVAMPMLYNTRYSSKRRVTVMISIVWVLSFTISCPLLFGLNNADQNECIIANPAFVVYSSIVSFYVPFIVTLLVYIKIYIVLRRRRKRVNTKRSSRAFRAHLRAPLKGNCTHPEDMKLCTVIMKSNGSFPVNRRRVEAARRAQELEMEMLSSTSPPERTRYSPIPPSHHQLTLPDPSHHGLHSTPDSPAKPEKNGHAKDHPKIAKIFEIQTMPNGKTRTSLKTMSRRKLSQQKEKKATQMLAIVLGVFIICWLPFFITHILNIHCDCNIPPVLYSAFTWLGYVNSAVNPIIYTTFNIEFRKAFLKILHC

On to `CCN1CCC[C@H]1CNC(=O)c1cc(I)cc(OC)c1OC` [I-123-Epidepride], for which, in data set [1], the “log P value” is 1.76±0.04. In addition, the “stability (radiochemistry purity after 24 hours)” value in data set [2] was “higher than 90%”. Further, the “brain uptake in combined microSPECT/microCT image” value in data set [3] is “obvious absorption is found in striatum [41], thalamus and midbrain [42]”.
For `CCN1CCC[C@H]1CNC(=O)c1c(OC)ccc(I)c1O` [IBZM], in data set [4], the Kd is 0.43 nM.
